# In article PMC8355704, “Designing Modular Cell-free Systems for Tunable Biotransformation of L-phenylalanine to Aromatic Compounds” (Frontiers in Bioengineering and Biotechnology, 2021):
# Experiments:
# Format in all cases: biochemical
# [1] = molecular target: T1, phenylalanine ammonia lyase 2 (PAL2) (Arabidopsis thaliana, UniProt P45724); assay: GC-MS detection of product cinnamic acid in cell-free expression mixture; conditions: unpurified E. coli CFPS lysate; control without plasmid
# T1 construct: codon-optimised gene in pET28a (NdeI/SalI), made by E. coli cell-free protein synthesis, not purified
# T1 sequence (P45724 whole entry): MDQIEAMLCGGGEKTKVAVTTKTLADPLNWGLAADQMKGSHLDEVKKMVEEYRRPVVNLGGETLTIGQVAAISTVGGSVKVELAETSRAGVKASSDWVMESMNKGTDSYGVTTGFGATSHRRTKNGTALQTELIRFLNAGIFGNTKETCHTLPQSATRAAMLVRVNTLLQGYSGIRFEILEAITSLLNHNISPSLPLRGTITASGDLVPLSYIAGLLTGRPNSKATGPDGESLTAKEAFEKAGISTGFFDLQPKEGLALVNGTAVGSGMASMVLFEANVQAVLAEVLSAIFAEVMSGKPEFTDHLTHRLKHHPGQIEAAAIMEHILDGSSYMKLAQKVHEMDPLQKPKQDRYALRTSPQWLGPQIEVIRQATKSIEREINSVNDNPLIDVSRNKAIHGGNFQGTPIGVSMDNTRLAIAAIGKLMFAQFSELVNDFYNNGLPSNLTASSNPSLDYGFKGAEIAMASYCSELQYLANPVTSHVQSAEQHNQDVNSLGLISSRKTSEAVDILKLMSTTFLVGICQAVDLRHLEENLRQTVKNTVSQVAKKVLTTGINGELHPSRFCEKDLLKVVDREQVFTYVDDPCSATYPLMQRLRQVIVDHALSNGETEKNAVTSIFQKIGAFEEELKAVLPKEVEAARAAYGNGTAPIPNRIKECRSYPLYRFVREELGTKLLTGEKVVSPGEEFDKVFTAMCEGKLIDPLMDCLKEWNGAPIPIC
# [2] = molecular target: T2, phenylacrylic acid decarboxylase (PAD, containing two enzymes Fdc1 and Pad1) (Aspergillus niger, UniProt A2QHE5); assay: GC-MS detection of product styrene in cell-free expression mixture; conditions: unpurified E. coli CFPS lysate; control without plasmid; Fdc1 coexpressed with Pad1
# T2 construct: codon-optimised Fdc1 and Pad1 genes in pET28a, coexpressed by E. coli cell-free protein synthesis, not purified; with Flavin prenyltransferase PAD1, mitochondrial
# [3] = molecular target: T3, styrene monooxygenase (SMO, consisting of two subunit enzymes StyA and StyB) (Pseudomonas sp., UniProt O50214); assay: GC-MS detection of product styrene oxide in cell-free expression mixture; conditions: unpurified E. coli CFPS lysate; control without plasmid; StyA coexpressed with StyB; NADH from lysate
# T3 construct: pET28a-StyA and pET28a-StyB coexpressed by E. coli cell-free protein synthesis, two separate chains, not purified; with Styrene monooxygenase StyB (NADH-flavin oxidoreductase component)
# T3 sequence (O50214 1-415): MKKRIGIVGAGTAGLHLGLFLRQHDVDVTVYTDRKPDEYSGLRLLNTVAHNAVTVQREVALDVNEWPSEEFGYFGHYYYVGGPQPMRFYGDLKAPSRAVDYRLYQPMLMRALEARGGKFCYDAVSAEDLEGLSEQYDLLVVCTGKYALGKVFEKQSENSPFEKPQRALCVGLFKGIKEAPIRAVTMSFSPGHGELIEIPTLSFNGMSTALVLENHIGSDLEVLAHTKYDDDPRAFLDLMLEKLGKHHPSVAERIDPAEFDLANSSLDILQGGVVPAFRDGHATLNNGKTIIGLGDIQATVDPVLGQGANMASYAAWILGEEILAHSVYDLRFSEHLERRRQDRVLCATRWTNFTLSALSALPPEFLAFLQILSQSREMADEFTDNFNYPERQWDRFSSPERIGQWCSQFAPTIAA
# [4] = molecular target: T4, styrene oxide isomerase (StyC, SOI) (Pseudomonas sp. VLB120, UniProt O50216); assay: GC-MS detection of product phenylacetaldehyde in cell-free expression mixture; conditions: unpurified E. coli CFPS lysate; control without plasmid
# T4 construct: gene stdC; codon-optimised gene in pET28a, made by E. coli cell-free protein synthesis, not purified; membrane protein
# T4 sequence (O50216 1-169): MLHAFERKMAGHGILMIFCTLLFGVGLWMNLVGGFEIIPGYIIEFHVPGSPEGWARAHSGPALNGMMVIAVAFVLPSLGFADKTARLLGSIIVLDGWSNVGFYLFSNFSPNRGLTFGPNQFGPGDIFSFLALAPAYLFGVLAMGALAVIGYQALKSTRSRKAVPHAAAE
compound,measurement,setting,value
"N[C@@H](Cc1ccccc1)C(=O)O [compound 1, L-phenylalanine]",GC-MS detection of product cinnamic acid in cell-free expression mixture,[1],each target compound was detected by GC-MS
"O=C(O)/C=C/c1ccccc1 [compound 2, cinnamic acid]",GC-MS detection of product styrene in cell-free expression mixture,[2],the conversion of cinnamic acid to styrene requires two enzymes Fdc1 and Pad1
"C=Cc1ccccc1 [compound 3, styrene]",GC-MS detection of product styrene oxide in cell-free expression mixture,[3],two subunit enzymes StyA and StyB to oxidize styrene to styrene oxide
"c1ccc(C2CO2)cc1 (stereo not shown) [compound 4, styrene oxide]",GC-MS detection of product phenylacetaldehyde in cell-free expression mixture,[4],all cell-free expressed enzymes were active to convert their substrates to the corresponding products
